Laboratory results: US20120015957A1, “PIPERAZINYL DERIVATIVES USEFUL AS MODULATORS OF THE NEUROPEPTIDE Y2 RECEPTOR” (priority 2007, published 2012)

target: T1, NPY Y2 receptor (Homo sapiens, UniProt P49146); test: Neuropeptide Y2 radioligand binding assay ([125I]PYY, KAN-Ts cell membranes); settings: membranes of KAN-Ts cells endogenously expressing Y2 receptors; [125I]PYY 80 pM; 1 h at rt; read-out: IC50 (μM), NPY Y2 binding
T1 construct: endogenous in cells; host or cells: KAN-Ts cells (membrane preparation)
T1 sequence (P49146 1-381): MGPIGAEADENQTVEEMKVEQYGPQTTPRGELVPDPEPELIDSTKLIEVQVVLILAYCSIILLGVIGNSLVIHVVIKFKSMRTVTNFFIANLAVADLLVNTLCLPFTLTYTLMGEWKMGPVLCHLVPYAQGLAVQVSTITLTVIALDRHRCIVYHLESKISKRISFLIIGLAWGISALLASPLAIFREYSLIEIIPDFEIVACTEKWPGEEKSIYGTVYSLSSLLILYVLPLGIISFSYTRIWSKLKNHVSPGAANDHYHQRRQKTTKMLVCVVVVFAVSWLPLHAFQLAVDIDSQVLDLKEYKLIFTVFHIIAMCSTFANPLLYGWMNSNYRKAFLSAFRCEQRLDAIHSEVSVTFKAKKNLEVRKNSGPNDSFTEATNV
Method: KAN-Ts endogenously expressing Y2 receptors were used for the radioligand binding assay. Cells were grown to confluence on 150 cm^2 tissue culture plates, washed with phosphate-buffered saline (PBS), and scraped into 50 mL tubes. After centrifugation, the supernatant was aspirated, and the pellets frozen and stored at −80° C. Thawed pellets were homogenized with a polytron tissue grinder for 15 sec in 20 mM Tris-HCl, 5 mM EDTA. The homogenate was centrifuged at 800×g for 5 min and the collected supernatant was recentrifuged at 25000×g for 25 min. The resulting pellet was resuspended in binding buffer (20 mM HEPES, 120 mM NaCl, 0.22 mM KH2PO4, 1.3 mM CaCl2, 0.8 mM MgSO4). Membranes were incubated with [^125I]PYY (80 pM) in the presence or absence of test compound for 1 h at rt. The reaction was stopped by filtration through GF/C filter plates pre-soaked in 0.3% polyethylenimine and subsequently washed with Tris 50 mM, 5 mM EDTA buffer. Plates were dried for 1 h in a 55° C. oven, scintillation fluid was added and the radioactivity was counted in a Packard TopCount. Specific binding to the NPY receptor subtypes was determined by radioactivity that was bound in the presence of […] NPY. Each binding experiment was repeated three to eight times, each in duplicate. IC50 values (i.e. concentration of unlabelled peptide or antagonist required to compete for 50% of specific binding to the radioligand) were determined using the GraphPad Prism software (GraphPad Software Inc., San Diego Calif.) with a fit to a sigmoidal dose response curve. Apparent K values were as K=IC50/(1+C/KD), where C is concentration of the radioligand.

| Compound | IC50 [µM] |
| --- | --- |
| COC(=O)C(c1ccccc1)N1CCN(c2ccc(-c3nc(C)no3)cc2F)CC1 (stereo not drawn) [Compound 183, {4-[2-Fluoro-4-(3-methyl-[1,2,4]oxadiazol-5-yl)-phenyl]-piperazin-1-yl}-phenyl-acetic acid methyl ester] | 3.1 |
| CCN(C)C(=O)C(c1ccccc1)N1CCN(c2ccc(-c3nc(C(C)C)no3)cc2F)CC1 (stereo not drawn) [Compound 184, N-Ethyl-2-{4-[2-fluoro-4-(3-isopropyl-[1,2,4]oxadiazol-5-yl)-phenyl]-piperazin-1-yl}-N-methyl-2-phenyl-acetamide] | 2.2 |
| CCN(CC)C(=O)C(c1ccccc1)N1CCN(c2ccc(-c3cccn3C(=O)OC(C)(C)C)cc2F)CC1 (stereo not drawn) [Compound 187, 2-{4-[4-(Diethylcarbamoyl-phenyl-methyl)-piperazin-1-yl]-3-fluoro-phenyl}-pyrrole-1-carboxylic acid tert-butyl ester] | 5 |
| CCN(CC)C(=O)C(c1ccccc1)N1CCN(c2ccc(-c3ccc[nH]3)cc2F)CC1 (stereo not drawn) [Compound 188, N,N-Diethyl-2-{4-[2-fluoro-4-(1H-pyrrol-2-yl)-phenyl]-piperazin-1-yl}-2-phenyl-acetamide] | 0.63 |
| CCN(CC)C(=O)C(c1ccccc1)N1CCN(c2ccc(-c3ccccc3)cc2F)CC1 (stereo not drawn) [Compound 193, N,N-Diethyl-2-[4-(3-fluoro-biphenyl-4-yl)-piperazin-1-yl]-2-phenyl-acetamide] | 0.42 |
| CCN(CC)C(=O)C(c1ccccc1)N1CCN(c2ccc(-c3cccc(Cl)c3)cc2F)CC1 (stereo not drawn) [Compound 194, 2-[4-(3′-Chloro-3-fluoro-biphenyl-4-yl)-piperazin-1-yl]-N,N-diethyl-2-phenyl-acetamide] | 0.88 |
| CCN(CC)C(=O)C(c1ccccc1)N1CCN(c2ccc(-c3cnn(C)c3)cc2F)CC1 (stereo not drawn) [Compound 195, N,N-Diethyl-2-{4-[2-fluoro-4-(1-methyl-1H-pyrazol-4-yl)-phenyl]-piperazin-1-yl}-2-phenyl-acetamide] | 0.9 |
| CCN(CC)C(=O)C(c1ccccc1)N1CCN(c2ccc(-c3ccc(Cl)cc3)cc2F)CC1 (stereo not drawn) [Compound 196, 2-[4-(4′-Chloro-3-fluoro-biphenyl-4-yl)-piperazin-1-yl]-N,N-diethyl-2-phenyl-acetamide] | 0.92 |
| CC(=O)C(c1ccccc1)N1CCN(c2ccc(-c3nc(C(C)C)no3)cc2F)CC1 (stereo not drawn) [Compound 198, 1-{4-[2-Fluoro-4-(3-isopropyl-[1,2,4]oxadiazol-5-yl)-phenyl]-piperazin-1-yl}-1-phenyl-propan-2-one] | 2.7 |
| CCCCC(C(=O)N(CC)CC)N1CCN(c2ccc(-c3nc(C)no3)cc2F)CC1 (stereo not drawn) [Compound 199, 2-{4-[2-Fluoro-4-(3-methyl-[1,2,4]oxadiazol-5-yl)-phenyl]-piperazin-1-yl}-hexanoic acid diethylamide] | 2.8 |
| CCN(CC)C(=O)C(c1ccccc1)N1CCN(c2ccc(-c3cc(C)n[nH]3)cc2F)CC1 (stereo not drawn) [Compound 200, N,N-Diethyl-2-{4-[2-fluoro-4-(5-methyl-2H-pyrazol-3-yl)-phenyl]-piperazin-1-yl}-2-phenyl-acetamide] | 0.81 |
| CCN(CC)C(=O)C(c1ccccc1)N1CCN(c2ccc(-c3ccccn3)cc2F)CC1 (stereo not drawn) [Compound 201, N,N-Diethyl-2-[4-(2-fluoro-4-pyridin-2-yl-phenyl)-piperazin-1-yl]-2-phenyl-acetamide] | 0.74 |
| CCN(CC)C(=O)C(c1ccccc1)N1CCN(c2ccc(-c3cccnc3)cc2F)CC1 (stereo not drawn) [Compound 202, N,N-Diethyl-2-[4-(2-fluoro-4-pyridin-3-yl-phenyl)-piperazin-1-yl]-2-phenyl-acetamide] | 1 |
| CCN(CC)C(=O)C(c1ccccc1)N1CCN(c2ccc(-c3ccc(C)cc3)cc2F)CC1 (stereo not drawn) [Compound 204, N,N-Diethyl-2-[4-(3-fluoro-4′-methyl-biphenyl-4-yl)-piperazin-1-yl]-2-phenyl-acetamide] | 0.77 |
| CCN(CC)C(=O)C(c1ccccc1)N1CCN(c2ccc(-c3ccc(OC)cc3)cc2F)CC1 (stereo not drawn) [Compound 205, N,N-Diethyl-2-[4-(3-fluoro-4′-methoxy-biphenyl-4-yl)-piperazin-1-yl]-2-phenyl-acetamide] | 1.9 |
| CCN(CC)C(=O)C(c1ccccc1)N1CCN(c2ccc(-c3ccc(F)cc3)cc2F)CC1 (stereo not drawn) [Compound 207, 2-[4-(3,4′-Difluoro-biphenyl-4-yl)-piperazin-1-yl]-N,N-diethyl-2-phenyl-acetamide] | 1.1 |
| CCN(CC)C(=O)C(c1ccccc1)N1CCN(c2ccc(-c3nc(C)n[nH]3)cc2F)CC1 (stereo not drawn) [Compound 208, N,N-Diethyl-2-{4-[2-fluoro-4-(5-methyl-2H-[1,2,4]triazol-3-yl)-phenyl]-piperazin-1-yl}-2-phenyl-acetamide] | 2.9 |
| CCN(CC)C(=O)C(c1cc(F)ccc1Br)N1CCN(c2ccc(-c3nc(C)no3)cc2F)CC1 (stereo not drawn) [Compound 209, 2-(2-Bromo-5-fluoro-phenyl)-N,N-diethyl-2-{4-[2-fluoro-4-(3-methyl-[1,2,4]oxadiazol-5-yl)-phenyl]-piperazin-1-yl}-acetamide] | 0.99 |

More lines, now with the values ahead:

| IC50 [µM] | Compound |
| --- | --- |
| 0.53 | CCc1noc(-c2ccc(N3CCN(C(C(=O)N(C)C)c4ccccc4)CC3)c(F)c2)n1 (stereo not drawn) [Compound 181, 2-{4-[4-(3-Ethyl-[1,2,4]oxadiazol-5-yl)-2-fluoro-phenyl]-piperazin-1-yl}-N,N-dimethyl-2-phenyl-acetamide] |
| 0.56 | Cc1noc(-c2ccc(N3CCN(C(C(=O)N(C)C)c4ccccc4)CC3)c(F)c2)n1 (stereo not drawn) [Compound 182, 2-{4-[2-Fluoro-4-(3-methyl-[1,2,4]oxadiazol-5-yl)-phenyl]-piperazin-1-yl}-N,N-dimethyl-2-phenyl-acetamide] |
| 0.12 | CC(C)c1noc(-c2ccc(N3CCN(C(C(=O)N4CCCC4)c4ccccc4)CC3)c(F)c2)n1 (stereo not drawn) [Compound 185, 2-{4-[2-Fluoro-4-(3-isopropyl-[1,2,4]oxadiazol-5-yl)-phenyl]-piperazin-1-yl}-2-phenyl-1-pyrrolidin-1-yl-ethanone] |
| 0.11 | CCN(CC)C(=O)C(c1ccccc1)N1CCN(c2ccc(-c3cc(C)nn3-c3ccccc3)cc2F)CC1 (stereo not drawn) [Compound 186, N,N-Diethyl-2-{4-[2-fluoro-4-(5-methyl-2-phenyl-2H-pyrazol-3-yl)-phenyl]-piperazin-1-yl}-2-phenyl-acetamide] |
| 0.48 | Cc1noc(-c2ccc(N3CCN(C(C(=O)N4CCC(F)(F)CC4)c4ccccc4)CC3)c(F)c2)n1 (stereo not drawn) [Compound 189, 1-(4,4-Difluoro-piperidin-1-yl)-2-{4-[2-fluoro-4-(3-methyl-[1,2,4]oxadiazol-5-yl)-phenyl]-piperazin-1-yl}-2-phenyl-ethanone] |
| 0.33 | CCNC(=O)C(c1ccccc1)N1CCN(c2ccc(-c3nc(C)no3)cc2F)CC1 (stereo not drawn) [Compound 190, N-Ethyl-2-{4-[2-fluoro-4-(3-methyl-[1,2,4]oxadiazol-5-yl)-phenyl]-piperazin-1-yl}-2-phenyl-acetamide] |
| 0.34 | CCN(CC)C(=O)C(c1ccccc1)N1CCN(c2ccc(C3=NN(C(C)C)C(=O)C3)cc2F)CC1 (stereo not drawn) [Compound 191, N,N-Diethyl-2-{4-[2-fluoro-4-(1-isopropyl-5-oxo-4,5-dihydro-1H-pyrazol-3-yl)-phenyl]-piperazin-1-yl}-2-phenyl-acetamide] |
| 0.38 | CCOC(=O)C(c1ccccc1)N1CCN(c2ccc(-c3nc(C)no3)cc2F)CC1 (stereo not drawn) [Compound 192, {4-[2-Fluoro-4-(3-methyl-[1,2,4]oxadiazol-5-yl)-phenyl]-piperazin-1-yl}-phenyl-acetic acid ethyl ester] |
| 0.075 | CCc1noc(-c2ccc(N3CCN(C(C(=O)N(C)CC)c4ccccc4)CC3)c(F)c2)n1 (stereo not drawn) [Compound 197, N-Ethyl-2-{4-[4-(3-ethyl-[1,2,4]oxadiazol-5-yl)-2-fluoro-phenyl]-piperazin-1-yl}-N-methyl-2-phenyl-acetamide] |
| 0.48 | CCN(CC)C(=O)C(c1ccccc1)N1CCN(c2ccc(-c3cccc(C)c3)cc2F)CC1 (stereo not drawn) [Compound 206] |
| 0.29 | CCN(CC)C(=O)C(c1ccc(F)cc1)N1CCN(c2ccc(-c3nc(C)no3)cc2F)CC1 (stereo not drawn) [Compound 210, N,N-Diethyl-2-{4-[2-fluoro-4-(3-methyl-[1,2,4]oxadiazol-5-yl)-phenyl]-piperazin-1-yl}-2-(4-fluoro-phenyl)-acetamide] |
| 0.083 | CCN(CC)C(=O)C(c1cccc(F)c1)N1CCN(c2ccc(-c3nc(C)no3)cc2F)CC1 (stereo not drawn) [Compound 211, N,N-Diethyl-2-{4-[2-fluoro-4-(3-methyl-[1,2,4]oxadiazol-5-yl)-phenyl]-piperazin-1-yl}-2-(3-fluoro-phenyl)-acetamide] |
